From US20080268073A1, “CERAMIDASE INHIBITOR” (TAKARA BIO INC., priority 2003, published 2008) come the findings set out here.

The experiment has as its system neutral/alkaline RatBrain Ceramidase. Briefly: Inhibitory activity on neutral/alkaline RatBrain Ceramidase (Reference Example 1, NBD-C12-Ceramide, HPLC). The note with it: concentration of 5 μM; NBD-C12-Ceramide 0.02 mM. The experiment is classed as biochemical, rat.

Method: As neutral/alkaline ceramidase, two kinds of ceramidase derived from Pseudomonas aeruginosa strain AN17 and ceramidase derived from a rat brain were used.
On the other hand, a crude enzyme solution of rat brain-derived ceramidase was prepared in the following manner. First, two pieces (3.5 g) of rat brain tissues were homogenized in 30 mL of 0.25 M sucrose solution with a Potter-Elvehjem homogenizer. The resulting homogenate was centrifuged at 700×g for 10 minutes, then the supernatant was centrifuged at 25,000×g for 10 minutes, and the resulting supernatant was further centrifuged at 100,000×g for 60 minutes to give precipitates which were then suspended in 3 mL of 25 mM Tris-HCl buffer (pH 8.0). Nine milliliters of 25 mM Tris-HCl buffer (pH 8.0) comprising 0.5% Triton X-100 was added to the resulting suspension which was then subjected to extraction by leaving the suspension on ice for 2 hours. […]
The inhibitory activity on the neutral/alkaline RatBrain Ceramidase was determined in the following manner. […] The reaction was terminated by adding 75 microliters of methanol, and 50 microliters of aliquot of the reaction solution was analyzed by HPLC.
HPLC analysis was carried out in the following manner. […] Detection was carried out with a fluorescence detector at an excitation light of 465 nm and a fluorescent light of 535 nm. […]

For `CCCC/C=C/CCCC(O)C(CCCCCCCCCCCCCCCC/C=C/CC(=O)O)C(CO)C(C)O` (single isomer, unassigned) [purified substance], the “inhibition of the activity of neutral/alkaline ceramidase derived from a rat brain” value came out at 50%.
